Structures can show the parent of a compound that is named as a salt.
Assays:
MAO-A = MAO-A (Homo sapiens (Human), UniProt P21397); assay: Monoamine oxidase A (MAO-A) selectivity assay (MAO-Glo); type: biochemical
MAO-B = MAO-B (Homo sapiens (Human), UniProt P27338); assay: Monoamine oxidase B (MAO-B) selectivity assay (MAO-Glo); type: biochemical
[1] = tested on: MATN2 in MDA-MB-231 cells; assay: MATN2 level in MDA-MB-231 cells (Western blotting); type: cell-based, human; conditions: at a much higher concentration than 20 μM
Protocol: Proteins were extracted from cultured cells using cell lysis buffer (Cell Signalling Technology) with the addition of protease and phosphatase inhibitor cocktails (Pierce). Protein concentrations were measured using Pierce 660 nm protein assay reagent and SpectaMax M5 plate reader. […] Separated proteins were transferred to nitrocellulose membranes using a Trans-Blot turbo transfer system (Bio-Rad). Following blocking with Odyssey blocking buffer (Li-COR), membranes were incubated with two primary antibodies of different species at 4° C. over night. Corresponding fluorescence secondary antibodies (Li-COR) of different excitation and emission wavelengths were used to visualize the protein of interest on an Odyssey CLx infrared imaging system (Li-COR). Quantification of band fluorescent intensity was achieved using Li-COR ImageStudio. The following primary antibodies were used, anti-LOX (Sigma), anti-human MATN2 (R&D), anti-EGFR and anti-pY1068EGFR (Cell Signalling Technology), and anti-GAPDH (Millipore).
LOX inhibitors show significant reduction of MATN2 in MDA-MB-231 cells treated at 20 μM overnight.

[2] = tested on: TGF beta signalling (pSMAD2); type: cell-based; conditions: leading to MATN2 reduction
in vivo [3] = conditions: female, mouse, po, 50 mg/kg
DAO = DAO (Sus scrofa, UniProt Q9TRC7); conditions: read-out: DAO IC50
in vivo [4] = conditions: rat, po, 20 mg/kg

Chain of DAO (Q9TRC7 25-755 limits assumed): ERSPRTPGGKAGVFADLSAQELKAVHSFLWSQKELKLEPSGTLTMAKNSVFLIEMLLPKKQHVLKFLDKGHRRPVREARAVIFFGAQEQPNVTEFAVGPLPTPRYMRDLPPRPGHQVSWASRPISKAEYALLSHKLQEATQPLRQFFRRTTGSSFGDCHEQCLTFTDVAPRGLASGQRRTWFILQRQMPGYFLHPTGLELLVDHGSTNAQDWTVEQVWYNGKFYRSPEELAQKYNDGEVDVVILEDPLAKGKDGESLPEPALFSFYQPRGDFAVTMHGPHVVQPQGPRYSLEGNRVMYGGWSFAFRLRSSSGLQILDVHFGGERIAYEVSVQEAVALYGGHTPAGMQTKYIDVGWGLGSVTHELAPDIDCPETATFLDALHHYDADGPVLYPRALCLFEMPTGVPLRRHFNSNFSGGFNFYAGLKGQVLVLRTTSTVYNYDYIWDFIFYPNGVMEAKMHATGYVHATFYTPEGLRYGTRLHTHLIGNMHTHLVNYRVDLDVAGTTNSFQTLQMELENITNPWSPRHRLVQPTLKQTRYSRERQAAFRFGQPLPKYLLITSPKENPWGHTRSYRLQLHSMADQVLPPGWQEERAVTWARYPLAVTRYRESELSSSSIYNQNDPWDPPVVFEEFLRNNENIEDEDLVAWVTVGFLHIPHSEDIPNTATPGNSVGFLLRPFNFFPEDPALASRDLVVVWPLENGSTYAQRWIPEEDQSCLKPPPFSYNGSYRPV
Chain of MAO-A (P21397 whole entry): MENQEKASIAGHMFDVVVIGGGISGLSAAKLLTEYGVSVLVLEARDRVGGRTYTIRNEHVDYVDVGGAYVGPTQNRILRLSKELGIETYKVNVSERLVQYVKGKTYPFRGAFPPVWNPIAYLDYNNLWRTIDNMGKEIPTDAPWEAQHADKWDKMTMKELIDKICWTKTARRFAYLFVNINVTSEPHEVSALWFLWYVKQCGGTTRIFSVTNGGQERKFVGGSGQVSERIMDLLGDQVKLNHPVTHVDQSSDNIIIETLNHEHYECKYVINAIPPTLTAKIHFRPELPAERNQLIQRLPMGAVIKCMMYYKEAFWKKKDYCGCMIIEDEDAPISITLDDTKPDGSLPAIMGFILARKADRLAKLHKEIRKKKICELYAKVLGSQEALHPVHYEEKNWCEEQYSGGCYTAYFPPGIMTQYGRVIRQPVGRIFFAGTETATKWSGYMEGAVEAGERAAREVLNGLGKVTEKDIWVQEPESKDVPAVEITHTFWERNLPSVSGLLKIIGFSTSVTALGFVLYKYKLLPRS
Chain of MAO-B (P27338 whole entry): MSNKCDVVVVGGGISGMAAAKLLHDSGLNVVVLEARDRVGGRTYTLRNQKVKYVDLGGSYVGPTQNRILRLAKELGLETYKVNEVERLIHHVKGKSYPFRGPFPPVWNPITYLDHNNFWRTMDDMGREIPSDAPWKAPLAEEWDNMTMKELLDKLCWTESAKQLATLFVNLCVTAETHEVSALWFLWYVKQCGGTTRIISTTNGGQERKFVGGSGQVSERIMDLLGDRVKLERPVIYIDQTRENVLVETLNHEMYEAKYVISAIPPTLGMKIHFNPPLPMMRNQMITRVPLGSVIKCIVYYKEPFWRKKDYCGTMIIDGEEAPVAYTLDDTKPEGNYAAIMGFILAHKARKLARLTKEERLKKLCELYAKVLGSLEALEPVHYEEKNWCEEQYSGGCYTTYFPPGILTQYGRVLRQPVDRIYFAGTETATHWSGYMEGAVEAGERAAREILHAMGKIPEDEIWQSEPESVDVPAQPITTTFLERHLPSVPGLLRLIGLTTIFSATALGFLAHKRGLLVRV

Question: Which MAO-A inhibition (MAO-A) does the source give for N#CCCN [BAPN, beta-aminopropionitrile] here?
Answer: The MAO-A inhibition was “neither inhibits”.

Question: What about the MAO-B inhibition (MAO-B) of the same compound?
Answer: The MAO-B inhibition was “neither inhibits”.

Question: What about the “reduction of MATN2” value [1] of the same compound?
Answer: The value was “The same effect was seen”.

Question: And the “TGF beta signalling as indicated by pSMAD2” value [2]?
Answer: The value was “increased”.

Question: What does the source list for Cc1ccc(-c2cc(S(=O)(=O)c3ccc(CN)s3)ccc2S(C)(=O)=O)cc1 [Example 82, (5-((4′-Methyl-6-(methylsulfonyl)-[1,1′-biphenyl]-3-yl)sulfonyl)thiophen-2-yl)methanamine hydrochloride]?
Answer: bioavailability (in vivo [3]): 74%; IC50 (DAO): > 100 µM

Question: For CCc1cc(-c2ccc[n+]([O-])c2)cc(S(=O)(=O)c2cnc(CN)s2)c1 [Example 113, 3-(3-((2-(Aminomethyl)thiazol-5-yl)sulfonyl)-5-ethylphenyl)pyridine 1-oxide hydrochloride], which IC50 (DAO) is on record?
Answer: The IC50 was greater than 100 µM.

Question: For Cn1cc(-c2cccc(S(=O)(=O)c3cnc(CN)s3)c2)cn1 [Example 116, (5-((3-(1-Methyl-1H-pyrazol-4-yl)phenyl)sulfonyl)thiazol-2-yl)methanamine], which IC50 (DAO) is on record?
Answer: The IC50 was greater than 100 µM.

Question: For CN(C)C(=O)c1cc(-c2ccccc2)cc(S(=O)(=O)c2cnc(CN)s2)c1 [Example 125, 5-((2-(Aminomethyl)thiazol-5-yl)sulfonyl)-N,N-dimethyl-[1,1′-biphenyl]-3-carboxamide dihydrochloride], which IC50 (DAO) is on record?
Answer: Its IC50 is greater than 100 µM.

Question: What does the source list for NCc1ncc(S(=O)(=O)c2cc(C(=O)O)cc(-c3ccccc3)c2)s1 [Example 126, 5-((2-(Aminomethyl)thiazol-5-yl)sulfonyl)-[1,1′-biphenyl]-3-carboxylic acid ditrifluoroacetate]?
Answer: bioavailability (in vivo [3]): 67%; bioavailability (in vivo [4]): 33%

Question: Which IC50 (DAO) does the source give for Cn1cc(-c2cc(F)cc(S(=O)(=O)c3cnc(CN)s3)c2)cn1 [Example 131, (5-((3-Fluoro-5-(1-methyl-1H-pyrazol-4-yl)phenyl)sulfonyl)thiazol-2-yl)methanamine trihydrochloride] here?
Answer: Its IC50 is greater than 100 µM.

Question: Which IC50 (DAO) does the source give for Cn1cc(-c2cc(C(=O)O)cc(S(=O)(=O)c3cnc(CN)s3)c2)cn1 [Example 150, 3-((2-(Aminomethyl)thiazol-5-yl)sulfonyl)-5-(1-methyl-1H-pyrazol-4-yl)benzoic acid tihydrochloride] here?
Answer: The IC50 was greater than 100 µM.
